Data as given in PMC8284461, “Piperidine-4-Carboxamides Target DNA Gyrase in Mycobacterium abscessus” (Antimicrobial Agents and Chemotherapy, 2021).
Converted amounts (≈) assume the structure as drawn.

Experiments:
[1] = target: recombinant M. abscessus wild-type DNA gyrase (Mycobacteroides abscessus, UniProt B1ME45+B1ME58); assay: biochemical; design: species or system Mycobacterium abscessus
[2] = Kinetic solubility; type: physicochemical
Description: (§1) Kinetic solubility, parallel artificial membrane permeability assay (PAMPA) permeability, and stability in the mouse liver microsome assay were performed by BioDuro (Shanghai, China) according to standard protocols.

[3] = tested on: M. abscessus subsp. abscessus ATCC 19977; assay: Selection and characterization of spontaneous resistant mutants; type: cell-based, Mycobacterium abscessus; details: ATCC 19977, agar with 8× MIC
[4] = tested on: M. abscessus subsp. abscessus ATCC 19977 MXF^r-1 (GyrA D96Y); assay: MIC, resistant mutant; type: cell-based, Mycobacterium abscessus; details: Mycobacteroides abscessus, ATCC19977
[5] = Mouse liver microsome stability; type: in vitro ADME
Description: as §1

[6] = tested on: M. abscessus subsp. abscessus ATCC 19977 MXF^r-3 (GyrA D96G); assay: MIC, resistant mutant; type: cell-based, Mycobacterium abscessus; details: Mycobacteroides abscessus, ATCC19977
[7] = Plasma stability; type: in vitro ADME, humans; details: human plasma, 37°C, 1 μg/ml
Description: (§2) The plasma stability assays were carried out using plasma from female CD-1 mice, New Zealand white rabbits, rhesus monkeys, and humans containing K2EDTA anticoagulant (Bioreclamation). Stability samples consisted of 5 μl of stock compound solution in 50:50 ACN/water and 95 μl of plasma to a final concentration of 1 μg/ml. The samples were incubated at 37°C with shaking; 10 μl of plasma was removed at each time point and combined with 100 μl of ACN/methanol 50:50 protein precipitation solvent containing internal standard (10 ng/ml verapamil). Chromatography for metabolite identification was performed the same as specified for pharmacokinetic sample analysis. Full scan total ion chromatograms (TIC) of plasma extracts were acquired using a Q Exactive high-resolution mass spectrometer (QE-HRMS) at 70,000 mass resolution. Thermo Fisher Compound Discoverer software was used to assist in identifying the 844-TFM metabolites from the QE-HRMS TIC mass spectrum. Figure S2 in the supplemental material illustrates the extracted ion chromatograms (XIC) of 844-TFM and the metabolites using 5 ppm mass accuracy before and after 12 h of incubation in mouse plasma.

[8] = tested on: M. abscessus subsp. abscessus ATCC 19977; assay: Time-concentration kill assay, planktonic cultures; type: cell-based, Mycobacterium abscessus; details: 1×, 4×, 8× MIC; CFU after 2 and 3 days
Description: At 0, 2, and 3 days, tubes were vortexed, and 20 μl of the cultures was transferred to round-bottom 96-well plates containing 180 μl of phosphate-buffered saline (PBS) (10010023; Thermo Fisher, USA) with 0.025% Tween 80 (PBS/Tween 80) for 10-fold serial dilution. To prevent compound carryover effects, we plated out serially diluted samples onto 7H10 agar supplemented with 0.4% activated charcoal (C9154; Sigma-Aldrich, USA) for all time points as described ([48]). CFU were enumerated after 4 days of incubation at 37°C.

[9] = tested on: M. abscessus subsp. abscessus Bamboo 844^r-2 (GyrA D91N); assay: MIC, resistant mutant; type: cell-based, Mycobacterium abscessus; details: Mycobacteroides abscessus
[10] = Parallel artificial membrane permeability assay (PAMPA); type: in vitro ADME
Description: as §1

[11] = Plasma stability; type: in vitro ADME, rhesus monkeys; details: monkey plasma, 37°C, 1 μg/ml
Description: as §2

[12] = Plasma stability; type: in vitro ADME, CD-1 mice; details: mouse plasma, 37°C, 1 μg/ml
Description: as §2

[13] = tested on: M. abscessus complex strains; assay: MIC across reference strains and clinical isolates; type: cell-based, Mycobacterium abscessus
Description: MIC was determined using the broth microdilution method in 96-well plates as described previously ([47]). Briefly, a 10-point 2-fold serial dilution of compounds was performed in 96-well plates (Costar 3370; Corning, USA) starting at twice the desired highest concentration. […] One hundred microliters of the bacterial suspension was seeded onto the 96-well plates containing 100 μl of the serially diluted compounds to give a final volume of 200 μl in each well with the final OD600 of 0.005. The plates were sealed with parafilm, placed onto wet paper towels in a lock-lock box and incubated for 3 days at 37°C with orbital shaking at 90 rpm. […] Absorbance values at day 3 were subtracted from the day 0 readout. Percent growth inhibition was calculated by dividing the absolute absorbance value of treated cells with untreated control and multiplying by 100. CLR was included in all MIC experiments as a positive control to monitor assay reproducibility. MIC was defined as 90% of growth inhibition relative to untreated controls.

[14] = tested on: M. abscessus subsp. abscessus ATCC 19977 biofilm; assay: Antibiofilm activity, MBEC biofilm assay; type: cell-based, Mycobacterium abscessus; details: 1×, 4×, 8× MIC; surface-attached CFU after 2 and 3 days
Description: The antibiofilm activity of 844 and 844-TMF was determined employing the MBEC 96-well Biofilm assay kit (19111; Innovotech, Edmonton, AB, Canada) as described previously ([15]) with minor modifications. Briefly, exponentially growing M. abscessus subsp. abscessus ATCC 19977 cultures were spun down at 3,200 × g for 10 min and washed with 7H9 broth without Tween 80 (‘7H9’). Bacteria were resuspended in ‘7H9’ to an OD600 of 0.0125, and 150 μl was dispensed into the wells of Innovotech 96-well plates. Pegs (protruding from the specialized lids of the Innovotech multiwell plates) were inserted into the bacterial suspensions in the wells, and the cultures were grown 24 h with shaking at 110 rpm at 37°C to allow attachment and growth of the bacteria on the surface of the pegs. […] Biofilm growth on the pegs was measured by CFU determination. The pegs were washed in 200 μl ‘7H9’ medium, removed, and placed in 1.7-ml microcentrifuge tubes (87003-294; VWR, Radnor, PA, USA) containing 500 μl PBS/Tween 80 (0.025%). The tubes were vortexed at 2,000 rpm for 90 s to detach and suspend the bacteria from the pegs before samples were serially diluted and plated onto 7H10 agar supplemented with 0.4% activated charcoal to determine CFU/peg.

[15] = target: GyrA D91N mutant recombinant M. abscessus DNA gyrase (Mycobacteroides abscessus, UniProt B1ME45+B1ME58, D91N); type: biochemical, Mycobacterium abscessus; details: GyrA D91N mutant DNA gyrase, up to 50 μM
[16] = tested on: M. abscessus subsp. abscessus ATCC 19977 844-TMF^r-4 (GyrB M474I); assay: MIC, resistant mutant; type: cell-based, Mycobacterium abscessus; details: Mycobacteroides abscessus, ATCC19977
[17] = tested on: M. abscessus subsp. abscessus Bamboo 844^r-3 (GyrB S473W); assay: MIC, resistant mutant; type: cell-based, Mycobacterium abscessus; details: Mycobacteroides abscessus

recombinant M. abscessus wild-type DNA gyrase, sequence (B1ME58 entry or part of it): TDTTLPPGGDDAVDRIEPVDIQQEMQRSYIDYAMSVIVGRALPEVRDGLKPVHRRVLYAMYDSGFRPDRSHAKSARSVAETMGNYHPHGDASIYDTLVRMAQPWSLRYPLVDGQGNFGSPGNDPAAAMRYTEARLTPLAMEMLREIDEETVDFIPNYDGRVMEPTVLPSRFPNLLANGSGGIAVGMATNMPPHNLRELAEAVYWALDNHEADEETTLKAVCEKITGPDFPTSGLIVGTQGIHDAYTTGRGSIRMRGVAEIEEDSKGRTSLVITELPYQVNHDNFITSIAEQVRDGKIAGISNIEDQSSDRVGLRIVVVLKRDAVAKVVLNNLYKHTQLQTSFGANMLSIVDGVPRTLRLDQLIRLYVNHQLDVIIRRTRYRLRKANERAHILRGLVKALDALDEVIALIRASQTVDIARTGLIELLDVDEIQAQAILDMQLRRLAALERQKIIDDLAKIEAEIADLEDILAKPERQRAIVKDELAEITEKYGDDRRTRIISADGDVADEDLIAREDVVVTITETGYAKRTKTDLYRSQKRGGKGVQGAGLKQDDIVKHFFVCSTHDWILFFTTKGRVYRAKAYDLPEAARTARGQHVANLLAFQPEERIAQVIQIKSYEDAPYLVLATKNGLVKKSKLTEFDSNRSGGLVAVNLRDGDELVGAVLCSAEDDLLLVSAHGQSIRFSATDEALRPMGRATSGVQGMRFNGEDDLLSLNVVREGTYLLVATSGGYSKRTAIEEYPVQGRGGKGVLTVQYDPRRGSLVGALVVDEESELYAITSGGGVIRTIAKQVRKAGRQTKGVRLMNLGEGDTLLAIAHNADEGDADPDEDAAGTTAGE
recombinant M. abscessus wild-type DNA gyrase, sequence (B1ME45 entry or part of it): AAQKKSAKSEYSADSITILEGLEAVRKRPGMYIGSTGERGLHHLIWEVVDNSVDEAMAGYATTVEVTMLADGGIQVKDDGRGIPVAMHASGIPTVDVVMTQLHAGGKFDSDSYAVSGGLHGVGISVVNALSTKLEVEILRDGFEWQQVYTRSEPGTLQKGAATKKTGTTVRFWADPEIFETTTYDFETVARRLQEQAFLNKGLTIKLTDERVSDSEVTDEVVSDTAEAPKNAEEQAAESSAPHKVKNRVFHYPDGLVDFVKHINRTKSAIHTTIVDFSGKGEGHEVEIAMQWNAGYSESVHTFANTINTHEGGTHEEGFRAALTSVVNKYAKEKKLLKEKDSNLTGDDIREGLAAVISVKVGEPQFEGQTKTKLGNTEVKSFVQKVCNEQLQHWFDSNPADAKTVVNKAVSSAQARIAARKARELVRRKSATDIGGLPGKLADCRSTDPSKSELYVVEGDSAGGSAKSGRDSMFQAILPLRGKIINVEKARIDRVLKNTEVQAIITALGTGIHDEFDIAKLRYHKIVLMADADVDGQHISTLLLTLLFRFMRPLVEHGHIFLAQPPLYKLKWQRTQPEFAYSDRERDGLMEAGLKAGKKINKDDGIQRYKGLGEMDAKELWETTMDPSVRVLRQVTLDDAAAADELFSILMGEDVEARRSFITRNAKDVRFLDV
GyrA D91N mutant recombinant M. abscessus DNA gyrase, sequence (B1ME58 2-839, stated change not applied): as the sequence (B1ME58 entry or part of it) above
GyrA D91N mutant recombinant M. abscessus DNA gyrase, sequence (B1ME45 2-675, stated change not applied): as the sequence (B1ME45 entry or part of it) above

In the case of `COc1ccc2nccc(NC(=O)C3CCN(CCc4ccc(C(F)(F)F)cc4)CC3)c2n1` [844-TFM], the “IC50 fold lower than the IC50 of parental 844” value [1] is reported as 2.4 fold, the IC50 ([1]; wild-type DNA gyrase, relaxed pBR322 substrate, read-out: IC50, supercoiling activity) is reported as 1.9 µM and the solubility ([2]; pH 7.4) is reported as 390 µM (≈ 179 µg/mL). For the same compound, the solubility ([2]; simulated gastric fluid, pH 2) was 446 µM (≈ 205 µg/mL), the “frequency of spontaneous resistance” value [3] was 10^−8 /CFU and the MIC [4] was 6 µM (≈ 2.75 µg/mL). The CLint scaled ([5]; liver microsomes, mouse hepatic microsomes, scaled) was 63.1 L/h/kg, the microsomal CLint ([5]; liver microsomes, mouse hepatic microsomes, read-out: In vitro CLint) was 267 µL/min/mg and the t1/2 ([5]; mouse hepatic microsomes, in vitro) was 5.2 min. It also gave a CLhepatic ([5]; mouse hepatic microsomes, scaled) of 4.97 L/h/kg, a half-life ([5]; mouse, liver microsomes, mouse hepatic microsomes, in vitro) of 5 min and a predicted extraction ratio ([5]; mouse, clearance vs hepatic blood flow of 90 ml/min/kg) of ~1. The MIC [6] was 1 µM (≈ 0.458 µg/mL), the “remaining after 24 h” value [7] was “approximately 80%” and the “bactericidal activity in planktonic cultures” value [8] was “bactericidal”. For the same compound, the MIC [9] was > 100 µM, the Papp ([10]; PAMPA, pH 7.4, read-out: PAMPA Mean Pe) was 20 nm/s and the “PAMPA logPe” value ([10]; pH 7.4) was −5.7. For the same compound, the “PAMPA logPe” value ([10]; −5.0 cm/s considered border between high and low permeability) was −5.7 cm/s, the “remaining after 24 h” value [11] was “approximately 80%” and the stability in plasma [12] was “rapidly degraded”. For the same compound, the MIC ([13]; Mycobacteroides abscessus, reference strains and clinical isolates of Table 1, read-out: MICs ranging across the M. abscessus complex strains) was 1.5 to 6 µM (≈ 0.688 to 2.75 µg/mL), the “fold more potent than 844” value ([13]; whole-cell potency relative to 844) was ~8 fold and the “bactericidal activity against M. abscessus grown as biofilm” value [14] was “bactericidal”. For the same compound, the “effect on supercoiling activity” value [15] was “No inhibition”, the MIC [16] was 6 µM (≈ 2.75 µg/mL) and the MIC [17] was 5 µM (≈ 2.29 µg/mL).
